Legend:
LoVo = experiment: Cell viability assay, adherent cell line, 5 day Alamar Blue (Example 8): LoVo; type: cell-based; conditions: Homo sapiens, 120 h, Colorectal Cancer Cell Viability
Experimental: (§1) Cell viability assays were performed on certain compounds of the disclosure, according to the following procedure.
(§2) Cell line specific media conditions used:
(§3) The procedure for adherent cell line compound screening was as follows:
(§4) • Cells were seeded in 96-well cell culture treated tissue culture plates: ZR-75-1, NIHOVCAR3, T47D, and LOVO cells 4000 cells/well; and HPAFII 3000 cell/well
(§5) Day 3: Compound Dilution and Dosing
(§6) • 5-fold serial dilution (8 point) of each compound in DMSO 0-25 mM in compound storage plates was prepared (stored at −80° C. if not to be used immediately). • Cells were rinsed with 1% FBS Media (appropriate to cell line as described above) and replaced with 87.5 μL media prior to dosing. HPAFII was screened in normal 10% FBS Media. • DMSO compound dilution series was diluted in 1% FBS media (appropriate to cell line as described above)—2 μL in 248 μL to give an 8× final concentration. • Cells were dosed 12.5 μL/well in triplicate to give final dose curved on cells 0-25 μM. • Media blank 100 μL/well×8 was set up. • All plates were incubated at 37° C.
(§7) Day 8: 5 Day Viability Assay
(§8) • Alamar Blue viability reagent was added (10 μL per well) and incubated for 3 hours at 37° C. prior to fluorescence detection (Ex560 nm/Em590 nm) on a Varioskan Lux multimode plate reader.
(§9) Results from cell viability assays are summarized in Table 23, wherein A represents IC50≤1 μM; B represents 1 μM<IC50≤8 μM; and C represents IC50>8 μM. Blank cells indicate that the compound was not tested in a particular assay.

T47D = experiment: Cell viability assay, adherent cell line, 5 day Alamar Blue (Example 8): T47D; type: cell-based; conditions: Homo sapiens, 120 h, Breast Cancer Cell Viability
Experimental: as §1, §2, §3, §4, §5, §6, §7, §8, §9

HPAFII = experiment: Cell viability assay, adherent cell line, 5 day Alamar Blue (Example 8): HPAFII; type: cell-based; conditions: Homo sapiens, HPAF-II, 120 h, Pancreatic Cancer Cell
Experimental: as §1, §2, §3, §4, §5, §6, §7, §8, §9

MM.1S = experiment: Cell viability assay, suspension cell line, 5 day Alamar Blue (Example 8): MM.1S; type: cell-based; conditions: Homo sapiens, MM1.S, 120 h, Multiple Myeloma (Steroid Sensitive) Cancer Cell
Experimental: as §1, §2
(§10) The procedure for suspension cell line compound screening was as follows:
(§11) Day 1: Cell Seeding and Compound Dosing
as §6, with “• Cells were seeded 2×10^5 in 96-well cell culture treated tissue culture plates: 87.5 μL/well; MM.1 S, MM,1R, NCIH510A. • 5-fold” for “• 5-fold”, “to dosing. • DMSO” for “to dosing. HPAFII was screened in normal 10% FBS Media. • DMSO”
(§12) Day 6: 5 Day Viability Assay
as §8, §9

NIHOVCAR3 = experiment: Cell viability assay, adherent cell line, 5 day Alamar Blue (Example 8): NIHOVCAR3; type: cell-based; conditions: Homo sapiens, OVCAR-3, 120 h, OVCAR3, Ovarian Cancer Cell
Experimental: as §1, §2, §3, §4, §5, §6, §7, §8, §9

NCIH510A = experiment: Cell viability assay, suspension cell line, 5 day Alamar Blue (Example 8): NCIH510A; type: cell-based; conditions: Homo sapiens, NCI-H510A, 120 h, Small Cell Lung Cancer Cell Line
Experimental: as §1, §2, §10, §11
as §6, with “• Cells were seeded 2×10^5 in 96-well cell culture treated tissue culture plates: 87.5 μL/well; MM.1 S, MM,1R, NCIH510A. • 5-fold” for “• 5-fold”, “to dosing. • DMSO” for “to dosing. HPAFII was screened in normal 10% FBS Media. • DMSO”
as §12, §8, §9

MM.1R = experiment: Cell viability assay, suspension cell line, 5 day Alamar Blue (Example 8): MM.1R; type: cell-based; conditions: 120 h, Multiple Myeloma (Steroid Resistant) Cancer Cell
Experimental: as §1, §2, §10, §11
as §6, with “• Cells were seeded 2×10^5 in 96-well cell culture treated tissue culture plates: 87.5 μL/well; MM.1 S, MM,1R, NCIH510A. • 5-fold” for “• 5-fold”, “to dosing. • DMSO” for “to dosing. HPAFII was screened in normal 10% FBS Media. • DMSO”
as §12, §8, §9

Human eIF4E (aa 28-217) = molecular target: T1, Human eIF4E (aa 28-217) (Homo sapiens, UniProt P06730); experiment: 4G-eIF4E protein-based assay (TR-FRET, biotin labeled 4G2 peptide); type: binding
T1 construct: Human eIF4E (aa 28-217) with a C-terminal His-tag; made in house
T1 sequence (P06730 28-217): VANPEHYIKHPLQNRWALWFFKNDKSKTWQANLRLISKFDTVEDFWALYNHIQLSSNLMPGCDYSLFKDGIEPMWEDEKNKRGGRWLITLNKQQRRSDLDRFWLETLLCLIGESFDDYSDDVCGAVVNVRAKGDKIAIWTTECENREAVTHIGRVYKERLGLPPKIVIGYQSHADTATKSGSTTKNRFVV
Experimental: Human eIF4E ([…]) with a C-terminal His-tag was expressed in E. coli in inclusion bodies. The protein was solubilized with 8 M urea and purified under denaturing conditions using nickel-charged HisTrap HP columns (GE Healthcare). The purified protein was then refolded by diluting in 20 mM Hepes pH 7.0, 0.5 M NaCl, 1 mM DTT, […], 0.5 M arginine plus 6 M urea, and then dialyzing overnight into the same buffer without the urea. The protein was further dialyzed into 20 mM Hepes, pH 6.5, 50 mM NaCl, 1 mM EDTA, 1 mM DTT, and concentrated using Hitrap SP sepharose FF columns (GE Healthcare). The concentrated protein was dialyzed into 20 mM Hepes, pH 7.0, 0.5M NaCl, 5 mM DTT and […], and stored at -80° C. until use. Test compounds (3.43 mM stock in DMSO) were diluted 2-fold in series in DMSO (10 concentration points). Compound solutions (1.2 μL/well) were added into black 384-well polypropylene microplates (Matrix, Thermal Scientific). […] The samples were incubated at room temperature (20-23° C.) for 4 hours. Biotin labeled 4G2 peptide ([…])-NH2, 1.75 μM stock in DMSO) was diluted to 0.13 μM in Assay Buffer (without DTT) and 5 μL/well was added. The samples were incubated at room temperature for 20 min. Five microliters per well of 15 nM Eu-streptavidin (Eu-SA, Perkin Elmer) and 96 nM Allophycocyanin (APC)-anti His antibody (Columbia Biosciences) in Assay Buffer (without DTT) were then added and the samples were incubated at room temperature for 20 min. Assay signals were monitored by reading excitation at 340 nm and emission fluorescence at 615 nm and 665 nm on an Envision reader (Perkin Elmer). Normalized TR-FRET (time-resolved fluorescence resonance energy transfer) assay signal (Rn) was calculated by the formula: […] C=(Ac-Ba)/(Dc-Bd) • Where Ac is the fluorescence intensity of 1.5 nM Eu-SA in the assay buffer at 665 nm. IC50 values were calculated using xLFit program (IDBS).

ZR-75-1 = ZR-75-1 compound screening cell viability, Alamar Blue (Example 6); type: cell-based; conditions: Homo sapiens, 96 h, ZR-75-1 cells, Media 1% FBS, read-out: ZR-75-1 Cell Viability, 4 Days: IC50

Compound	IC50 (LoVo) [nM]	IC50 (T47D) [nM]	IC50 (MM.1S) [nM]	IC50 (MM.1R) [nM]	IC50 (Human eIF4E (aa 28-217)) [nM]	IC50 (HPAFII) [nM]	IC50 (NIHOVCAR3) [nM]	IC50 (NCIH510A) [nM]	IC50 (ZR-75-1) [nM]
CC(C)Cc1sc(Nc2ncc(-c3cccs3)cc2C(=O)O)nc1C1CCCCC1 [Compound I-3]	1000 to 8000	1000 to 8000	1000 to 8000	1000 to 8000	500 to 1000	≤ 1000	1000 to 8000	1000 to 8000	< 1000
CC(C)Cc1sc(Nc2ncc(-c3cccs3)cc2C(=O)O)nc1C1=CCOCC1 [Compound I-1]					500 to 1000				
CC(C)Cc1sc(Nc2ncc(-c3cccs3)cc2C(=O)O)nc1C1=CCCC1 [Compound I-8]	≤ 1000	≤ 1000	≤ 1000	≤ 1000	500 to 1000	≤ 1000	≤ 1000	≤ 1000	

Further lines, with some results ahead:

IC50 (LoVo) [nM]	IC50 (T47D) [nM]	IC50 (MM.1S) [nM]	IC50 (MM.1R) [nM]	IC50 (Human eIF4E (aa 28-217)) [nM]	Compound	IC50 (HPAFII) [nM]	IC50 (NIHOVCAR3) [nM]	IC50 (NCIH510A) [nM]	IC50 (ZR-75-1) [nM]
1000 to 8000	1000 to 8000	1000 to 8000	1000 to 8000	500 to 1000	CC(C)Cc1sc(Nc2ncc(-c3cccs3)cc2C(=O)O)nc1C1CCC(F)(F)CC1 [Compound I-29]	1000 to 8000	1000 to 8000	≤ 1000	
≤ 1000	≤ 1000	1000 to 8000	1000 to 8000	≤ 500	CC(C)Cc1sc(Nc2ncc(-c3cccs3)cc2C(=O)O)nc1C1(C)CCCCC1 [Compound I-27]	1000 to 8000	1000 to 8000	≤ 1000	
≤ 1000	≤ 1000	≤ 1000	≤ 1000	500 to 1000	CC(C)Cc1sc(Nc2ncc(-c3cccs3)cc2C(=O)O)nc1C(C)(C)C [Compound I-11]	≤ 1000	≤ 1000	≤ 1000	< 1000
